Laboratory results from patent US9408813B2, “Small-molecule inhibitors of dengue virus proteases” (THE BOARD OF REGENTS OF THE UNIVERSITY OF TEXAS SYSTEM, priority 2013, dated 2016).
Read-outs that look alike come from different tables or passages of the source.

Target: T1, DENV NS2B-NS3 protease (Dengue virus type 2, UniProt P29990)
T1 construct: plasmid construct CF40-Gly-NS3pro185; made in house; host or cells: E. coli
Assay: NS2B-NS3 protease steady-state kinetic inhibition assay (Boc-GRR-AMC substrate, Dynafit global fit)
Type: biochemical, DEN2V (dengue virus serotype 2)
Conditions: 100 nM NS2B-NS3, cleavage buffer pH 9.5, 25° C., two inhibitor concentrations
Protocol: The DEN2V protease (plasmid construct CF40-Gly-NS3pro185 (Li et al., The Journal of Biological Chemistry, 280, 28766-28774, 2005)) was expressed in E. coli largely following the previously described protocol (Li et al., The Journal of Biological Chemistry, 280, 28766-28774, 2005), although cell growth was continued for 6 hrs at 25° C. following addition of 0.4 mM IPTG (isopropyl-D-thiogalactopyranoside). Purification was as described previously (Li et al., The Journal of Biological Chemistry, 280, 28766-28774, 2005) using metal affinity chromatography. Purified, concentrated NS2B-NS3pro was stored at −80° C. in cleavage buffer (200 mM Tris pH 9.5, 20% glycerol). The activity of the dengue protease was not impacted by a freeze/thaw cycle (data not shown).
Small molecules identified by virtual screening as potential DEN2V protease inhibitors were tested for inhibition activity using NS2B-NS3 protease steady-state kinetic assays as described previously (Li et al., The Journal of Biological Chemistry, 280, 28766-28774, 2005). Briefly, compounds identified in virtual screening experiments were received from established chemical vendors and tested for solubility at 10 mM in DMSO and upon 100-fold dilution from DMSO into cleavage buffer (i.e., 100 μM final compound concentration in 1% DMSO). […] Sequential 10-fold serial dilutions were used to determine the limits of solubility in cleavage buffer as necessary.
Preliminary single-point inhibition assays (Li et al., The Journal of Biological Chemistry, 280, 28766-28774, 2005) were used to check the inhibition activity of compounds using 100 nM NS2B-NS3 and 100 μM substrate Boc-GRR-AMC in cleavage buffer for 30 minutes at 25° C. Fluorescence measurements (lem=465 nm, lex=380 nm) were performed in duplicate on a Fluorolog FL3-22 spectrofluorometer (Horiba Jobin Yvon) and corrected for compound absorption and emission. […] Two inhibitor concentrations were tested. Fluorescence measurements were recorded at 5 minutes intervals from 0 to 30 minutes; fluorescence intensities were converted to AMC product concentrations using calibration curves established with each compound concentration. Each kinetic study was performed in duplicate, and all experiments were repeated three times to ensure all measured parameters were reproducible in independent experiments. Initial velocities at each substrate concentration were calculated from linear curve fits of AMC production per time. The program Dynafit (Biokin, Watertown, Mass.) (Kuzmic, Anal. Biochem., 237, 260-273, 1996) was used to determine Michalen-Menten inhibition model and kinetic parameters that produced the best global fits to the measured velocity versus substrate kinetic data.
These compounds were advanced to detailed kinetic inhibition assays to determine mechanisms of inhibition and inhibition constants. All experiments were performed using two different inhibitor concentrations and a no inhibitor control. Kinetic parameters and inhibition constants were calculated using a generalized Michaelis-Menten model (FIG. 4) and global fitting to all collected velocity versus substrate concentration data (Table 1). […] Further study will be required to determine whether a particular mechanism of inhibition might be advantageous in regard to efficacy against virus replication and/or delay of escape mutants.

[1] = read-out: Inhibition constant Ki1 (competitive component, binding to enzyme)
[2] = read-out: Inhibition constant Ki2 (binding to enzyme-substrate ES complex)
[3] = Inhibition constant Ki1 (competitive component, binding to enzyme)
[4] = read-out: Inhibition constant Ki3 (binding to ES2 complex)

T1 sequence (P29990 1476-1653): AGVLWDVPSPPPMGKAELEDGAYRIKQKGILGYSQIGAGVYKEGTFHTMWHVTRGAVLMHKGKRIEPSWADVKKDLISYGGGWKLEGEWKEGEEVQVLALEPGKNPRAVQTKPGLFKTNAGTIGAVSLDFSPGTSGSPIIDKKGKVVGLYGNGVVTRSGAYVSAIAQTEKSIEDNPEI

c1ccc2c(-c3nnc(-c4ccc5nccnc5c4)o3)cccc2c1 [ZINC00156657] gave a Ki [1] of 95 µM and a Ki [2] of 45 µM.
NS(=O)(=O)c1cccc(-c2ccc([C@H]3Nc4ccccc4-c4nc5ccccc5n43)o2)c1 [ZINC01032664] showed a Ki [2] of 56 µM.
For Cn1c(=O)c2cc3ccccc3nc2c2c(=O)n(-c3ccccc3)c(=O)n(-c3ccccc3)c21 [ZINC01042004], the Ki [2] was 28 µM.
c1ccc(CSc2nnc3nc4c5ccccc5c5ccccc5c4nn23)cc1 [ZINC03120327] showed a Ki [3] of 42 µM and a Ki (Inhibition constant Ki2 (binding to enzyme-substrate ES complex)) of 21 µM.
O=C1[C@H]2CSC3(C(=O)c4ccccc4C3=O)N2C(=O)[C@H]2CSC3(C(=O)c4ccccc4C3=O)N12 [ZINC03129319] showed a Ki [3] of 92 µM and a Ki (Inhibition constant Ki3 (binding to ES2 complex)) of 20 µM.
Compound O=C1Cc2ccc(F)cc2C[C@@H]1C1=Cc2ccc(F)cc2CC1 [ZINC04321905] has a Ki [1] of 85 µM.
Work on Cc1nn(-c2ccccc2)nc1C(=O)Nc1nnc(Sc2ccnc3cc(Cl)ccc23)s1 [ZINC08647752] yielded a Ki [1] of 60 µM and a Ki [4] of 14 µM.
O=C(NNC(=NS(=O)(=O)c1ccccc1)NNC(=O)c1cccc(Cl)c1)c1cccc(Cl)c1 [ZINC12339756] gave a Ki [4] of 64 µM.
Cc1ccc(-n2ncc3c2CC(C)(C)C[C@@H]3NC(=O)c2cn(C)c3ccccc3c2=O)cc1 [ZINC12702527] was tested, and the Ki [1] was 288 µM and the Ki [2] was 421 µM.
With O=C(Nc1cccc(-c2nnc(Cc3ccc4c(c3)OCO4)o2)c1)Nc1ccc2c(c1)CCC2 [ZINC21359030] the Ki [2] was 4 µM.
Cc1ccc(S(=O)(=O)Nc2ccc(Cn3cnc(-c4nc(-c5cccc(C)c5)no4)c3)cc2)cc1 [ZINC32974777] gave a Ki [1] of 106 µM and a Ki [2] of 21 µM.
Cc1ccn2c(=O)cc(COc3cc(NC(=O)Nc4ccc5c(c4)OCCO5)ccc3C)nc2c1 [ZINC33068105] showed a Ki [1] of 39 µM and a Ki [2] of 4 µM.
